PMC7076857 (Toxins, 2020)
Converted amounts (≈) assume the structure as drawn. Where two headings read alike, the source gives them in different places. Numbered stars: 1 amine (or outer) side, 2 acyl side, 3 side chain; on linkers, the order of the positions; unused ones are H or OH. Bridge positions count the residues as written; N and C are the ends. Square brackets hold non-standard residues; d marks the D form. Peptide text beside a SMILES is read from it. Adda = CO[C@@H](Cc1ccccc1)[C@@H](C)/C=C(C)/C=C/[C@H](N[*:1])[C@H](C)C(=O)[*:2]; dAsp(3S-Me) = C[C@H](C(=O)[*:3])[C@@H](N[*:1])C(=O)[*:2]; d(γGlu) = O=C(O)[C@@H](CCC(=O)[*:2])N[*:1]; NMeDha = C=C(NC)C(=O)O

Legend:
[1] = system: PP2A; conditions: cited from earlier work
Description: The positive and negative LC–HRMS spectra of 1 were consistent with a molecular formula of C55H77O13N7 which, together with the presence of a prominent [M + Na]^+ adduct ion, a weak neutral loss of m/z 134.0727, and the late retention time, were consistent with a non-Arg-containing MC. […] The negative ion MS/MS spectrum obtained from the FS/DIA (full scan/data indepe ...

[2] = biological target: Protein phosphatase 2A (PP2A) (Homo sapiens, UniProt P67775); format: biochemical; conditions: for IC50: read-out: IC50 (PP2A inhibition)
Chain of Protein phosphatase 2A (PP2A) (P67775 whole entry, looked up): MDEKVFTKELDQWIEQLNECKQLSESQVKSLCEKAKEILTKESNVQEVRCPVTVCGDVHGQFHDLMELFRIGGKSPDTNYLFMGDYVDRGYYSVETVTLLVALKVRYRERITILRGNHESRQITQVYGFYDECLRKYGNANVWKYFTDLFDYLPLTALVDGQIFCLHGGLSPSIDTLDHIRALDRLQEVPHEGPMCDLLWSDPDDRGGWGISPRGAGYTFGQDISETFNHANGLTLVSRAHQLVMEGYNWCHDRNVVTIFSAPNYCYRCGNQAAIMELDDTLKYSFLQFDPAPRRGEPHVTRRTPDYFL

## MC-LF [Compound 9]
[1]; PP2A assay, MC-LF vs. MC-LR, ref 21 (Ikehara et al.)
  IC50 relative to MC-LR (2), fold higher: 3 fold
[1]; ref 21 (Ikehara et al.)
  IC50: 0.096 nM

## C=C1C(=O)N[C@H](CC(C)C)C(=O)N[C@@H](CC(C)C)C(=O)N[C@@H](C(=O)O)[C@H](C)C(=O)N[C@@H](Cc2ccc(O)cc2)C(=O)N[C@@H](/C=C/C(C)=C/[C@H](C)[C@H](Cc2ccccc2)OC)[C@H](C)C(=O)N[C@@H](C(=O)O)CCC(=O)N1C [Compound 1, [D-Leu^1]MC-LY] (Y[Adda][d(γGlu)][NMeDha][dL]L[dAsp(3S-Me)]-OH; lactam N-7)
[2]
  IC50 (PP2A inhibition): 0.80 ng/mL (≈ 0.766 nM)
  Potency in PP2A inhibition assay relative to MC-LR (2): essentially the same as for MC-LR (2)
  IC50: 0.76 nM

## C=C1C(=O)N[C@H](C)C(=O)N[C@@H](CC(C)C)C(=O)N[C@@H](C(=O)O)[C@H](C)C(=O)N[C@@H](CCCNC(=N)N)C(=O)N[C@@H](/C=C/C(C)=C/[C@H](C)[C@H](Cc2ccccc2)OC)[C@H](C)C(=O)N[C@@H](C(=O)O)CCC(=O)N1C [Compound 2, MC-LR] (R[Adda][d(γGlu)][NMeDha][dA]L[dAsp(3S-Me)]-OH; lactam N-7)
[1]
  IC50: 0.032 nM
[2]
  IC50 (PP2A inhibition): 0.62 ng/mL (≈ 0.623 nM)
  IC50: 0.62 nM
